How the values were obtained:
A2058 (Melanoma) = assay: Bliss excess, mean over the matrix (fraction); higher = more synergy
Summary of the method: (§1)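 Cell lines grown in DMEM/F12 or RPMI with 10% FBS were plated in 1536-well plates and held 24 hours at 37°C, 5% CO2 before 72 hours of exposure to two-drug dose matrices, with DMSO typically at 0.2%. CellTiter-Glo 2.0 luminescence gave viability, which was converted to inhibition. Vehicle wells were set to 0 and blank wells to 1. Combination Emax is the second-highest inhibition in the matrix, and Bliss excess is the observed combination effect minus the expected EA + EB − EA·EB, where EA and EB are the single-agent effects.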

[1] = tested on: CAL-120 (Breast Carcinoma); assay: as above
Summary of the method: as §1

[2] = tested on: LB996-RCC (Kidney Carcinoma); assay: as above
Summary of the method: as §1

[3] = tested on: NCI-H23 (Lung Adenocarcinoma); assay: combination Emax (second highest fraction inhibited in the dose matrix, 72 h); higher = more inhibition; extreme values may be limits of the assay
Summary of the method: as §1

[4] = tested on: OPM-2 (Plasma Cell Myeloma); assay: as above
Summary of the method: as §1

IST-MES1 (Mesothelioma) = assay: as above
Summary of the method: as §1

[5] = tested on: COLO-680N (Esophageal Squamous Cell Carcinoma); assay: as above
Summary of the method: as §1

[6] = tested on: RERF-LC-Sq1 (Squamous Cell Lung Carcinoma); assay: as above
Summary of the method: as §1

WM278 (Melanoma) = assay: as above
Summary of the method: as §1

GB-1 (Glioblastoma) = assay: as above
Summary of the method: as §1

[7] = tested on: PSN1 (Pancreatic Carcinoma); assay: as above
Summary of the method: as §1

[8] = tested on: PC-3_[JPC-3] (Lung Adenocarcinoma); assay: as above
Summary of the method: as §1

[9] = tested on: SU-DHL-10 (B-Cell Non-Hodgkin's Lymphoma); assay: as above
Summary of the method: as §1

[10] = tested on: REH (B-Lymphoblastic Leukemia); assay: as above
Summary of the method: as §1

[11] = tested on: PANC-03-27 (Pancreatic Carcinoma); assay: as above
Summary of the method: as §1

[12] = tested on: SHP-77 (Small Cell Lung Carcinoma); assay: as above
Summary of the method: as §1

[13] = tested on: FADU (Head and Neck Carcinoma); assay: as above
Summary of the method: as §1

[14] = tested on: MFE-280 (Endometrial Carcinoma); assay: as above
Summary of the method: as §1

[15] = tested on: NCI-H2342 (Lung Adenocarcinoma); assay: as above
Summary of the method: as §1

[16] = tested on: NCI-H446 (Small Cell Lung Carcinoma); assay: as above
Summary of the method: as §1
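For Bliss excess, mean over the matrix in this document: after 72 h of two-drug dosing.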

| SMILES | Bliss excess (A2058 (Melanoma)) | Bliss excess [1] | Bliss excess [2] | combination Emax [3] | combination Emax [4] | combination Emax (IST-MES1 (Mesothelioma)) | combination Emax [5] | combination Emax [6] | combination Emax (WM278 (Melanoma)) | combination Emax (GB-1 (Glioblastoma)) | combination Emax [7] | combination Emax [8] | combination Emax [9] | combination Emax [10] | combination Emax [11] | combination Emax [12] | combination Emax [13] | combination Emax [14] | combination Emax [15] | combination Emax [16] |
| --- | --- | --- | --- | --- | --- | --- | --- | --- | --- | --- | --- | --- | --- | --- | --- | --- | --- | --- | --- | --- |
| COc1cccc(OCCCN)c1-c1cc(Nc2cnc(C#N)cn2)n[nH]1 [Prexasertib] + CN(C)CCCOc1ccc(-c2ccc3ncc4c(c3c2)n(C2CCOCC2)c(=O)n4C)cn1 [AZD0156] (first compound max 1 µM, 7x7, partner max 1 µM) | 0.007 | 0.0088 | 0.0028 | 0.882 | 0.936 | 0.218 | 0.414 | 0.864 | 0.574 | 0.485 | 0.444 | 0.384 | 0.999 | 0.994 | 0.902 | 0.829 | 0.808 | 0.441 | 0.345 | 0.982 |
| COc1cccc(OCCCN)c1-c1cc(Nc2cnc(C#N)cn2)n[nH]1 [Prexasertib] + C[C@@H]1COCCN1C2=NC(=NC(=C2)C3(CC3)[S@](=N)(=O)C)C4=C5C=CNC5=NC=C4 [AZD6738] (first compound max 1 µM, 7x7, partner max 10 µM) | 0.0232 | 0.0093 | 0.0355 | 0.884 | 0.909 | 0.278 | 0.416 | 0.899 | 0.569 | 0.691 | 0.536 | 0.426 | 1 | 1 | 0.902 | 0.836 | 0.918 | 0.398 | 0.294 | 0.975 |
| COc1cccc(OCCCN)c1-c1cc(Nc2cnc(C#N)cn2)n[nH]1 [Prexasertib] + Cc1cc2ncnn2cc1Nc1ncc2c(n1)n(C1CCOCC1)c(=O)n2C [AZD7648] (first compound max 1 µM, 7x7, partner max 10 µM) | 0.0025 | 0.0045 | 0.0292 | 0.889 | 0.912 | 0.355 | 0.37 | 0.855 | 0.596 | 0.458 | 0.461 | 0.324 | 0.999 | 0.992 | 0.898 | 0.862 | 0.851 | 0.405 | 0.309 | 0.97 |
| COc1cccc(OCCCN)c1-c1cc(Nc2cnc(C#N)cn2)n[nH]1 [Prexasertib] + O=C(c1cc(Cc2n[nH]c(=O)c3ccccc23)ccc1F)N1CCN(C(=O)C2CC2)CC1 [Olaparib] (first compound max 1 µM, 7x7, partner max 10 µM) | 0.0158 | -0.0552 | -0.0145 | 0.879 | 0.943 | 0.283 | 0.342 | 0.833 | 0.627 | 0.439 | 0.456 | 0.31 | 1 | 0.987 | 0.918 | 0.819 | 0.897 | 0.416 | 0.302 | 0.963 |
| COc1cc2c(cc1OCCCCCOc1cc3c(cc1OC)C(=O)N1C=C(C)C[C@H]1C=N3)N=C[C@@H]1CC(C)=CN1C2=O [SG3199] + O=C(c1cc(Cc2n[nH]c(=O)c3ccccc23)ccc1F)N1CCN(C(=O)C2CC2)CC1 [Olaparib] (first compound max 0.001 µM, 7x7, partner max 10 µM) | -0.0172 | -0.0329 | 0.0077 | 0.253 | 0.0651 | 0.218 | 0.0893 | 0.129 | 0.0771 | 0.141 | 0.127 | 0.193 | 0.23 | 0.197 | 0.0754 | 0.223 | 0.115 | 0.184 | 0.0836 | 0.285 |
| CCc1c2c(nc3ccc(O)cc13)-c1cc3c(c(=O)n1C2)COC(=O)[C@]3(O)CC [SN-38] + CN(C)CCCOc1ccc(-c2ccc3ncc4c(c3c2)n(C2CCOCC2)c(=O)n4C)cn1 [AZD0156] (first compound max 0.3 µM, 7x7, partner max 1 µM) | 0.0477 | -0.0792 | 0.0011 | 0.554 | 0.772 | 0.875 | 0.412 | 0.743 | 0.635 | 0.735 | 0.705 | 0.732 | 0.986 | 1 | 0.773 | 0.48 | 1 | 0.611 | 0.225 | 0.818 |
| C[C@@H](c1ccc2nccn2c1)n1nnc2ncc(-c3cnn(C)c3)nc21 [Savolitinib] + CC1(C)CCC(CN2CCN(c3ccc(C(=O)NS(=O)(=O)c4ccc(NCC5CCOCC5)c([N+](=O)[O-])c4)c(Oc4cnc5[nH]ccc5c4)c3)CC2)=C(c2ccc(Cl)cc2)C1 [Venetoclax] (first compound max 1 µM, 7x7, partner max 1 µM) | -0.0611 | -0.0804 | -0.0725 | 0.205 | 0.246 | 0.198 | 0.211 | 0.167 | 0.102 | 0.109 | 0.12 | 0.129 | 0.0782 | 0.608 | 0.167 | 0.314 | 0.154 | 0.186 | 0.188 | 0.277 |
| C[C@@H](c1ccc2nccn2c1)n1nnc2ncc(-c3cnn(C)c3)nc21 [Savolitinib] + Cc1c2c(nn1C)CSCc1cc(n(C)n1)CSc1cc(c3ccccc3c1)OCCCc1c(C(=O)O)n(C)c3c-2c(Cl)ccc13 [AZD5991] (first compound max 1 µM, 7x7, partner max 1 µM) | -0.0043 | -0.0387 | -0.0372 | 0.915 | 1 | 0.189 | 0.183 | 0.173 | 0.15 | 0.117 | 0.174 | 0.284 | 1 | 0.806 | 0.0558 | 0.34 | 0.546 | 0.116 | 0.321 | 0.597 |
| Cn1cnc2c(F)c(Nc3ccc(Br)cc3Cl)c(C(=O)NOCCO)cc21 [Selumetinib] + C=CCn1c(=O)c2cnc(Nc3ccc(N4CCN(C)CC4)cc3)nc2n1-c1cccc(C(C)(C)O)n1 [AZD1775] (first compound max 10 µM, partner max 1 µM) | -0.029 | -0.0502 | -0.0886 | 0.915 | 0.834 | 0.189 | 0.181 | 0.666 | 0.641 | 0.321 | 0.736 | 0.452 | 0.98 | 0.62 | 0.815 | 0.35 | 0.521 | 0.212 | 0.353 | 0.925 |
| Cn1cnc2c(F)c(Nc3ccc(Br)cc3Cl)c(C(=O)NOCCO)cc21 [Selumetinib] + CC(C)n1c(=O)n(C)c2cnc3cc(F)c(-c4ccc(OCCCN5CCCCC5)nc4)cc3c21 [AZD1390] (first compound max 10 µM, 7x7, partner max 0.3 µM) | -0.0155 | -0.0388 | -0.0262 | 0.339 | 0.192 | 0.183 | 0.143 | 0.402 | 0.841 | 0.0241 | 0.738 | 0.159 | 0.0401 | 0.0781 | 0.42 | 0.15 | 0.271 | 0.17 | 0.0339 | 0.262 |
| Cn1cnc2c(F)c(Nc3ccc(Br)cc3Cl)c(C(=O)NOCCO)cc21 [Selumetinib] + CCN(CCO)CCCOc1ccc2c(Nc3cc(CC(=O)Nc4cccc(F)c4)[nH]n3)ncnc2c1 [AZD2811] (first compound max 10 µM, 7x7, partner max 1 µM) | 0.0945 | -0.0065 | -0.0359 | 0.484 | 0.356 | 0.269 | 0.188 | 0.535 | 0.581 | 0.117 | 0.708 | 0.189 | 0.738 | 0.604 | 0.534 | 0.362 | 0.467 | 0.161 | 0.365 | 0.91 |
| Cn1cnc2c(F)c(Nc3ccc(Br)cc3Cl)c(C(=O)NOCCO)cc21 [Selumetinib] + C[C@@H]1COCCN1C2=NC(=NC(=C2)C3(CC3)[S@](=N)(=O)C)C4=C5C=CNC5=NC=C4 [AZD6738] (first compound max 10 µM, 7x7, partner max 10 µM) | 0.059 | 0.0117 | -0.0871 | 0.874 | 0.847 | 0.269 | 0.203 | 0.786 | 0.587 | 0.337 | 0.736 | 0.309 | 0.911 | 0.684 | 0.599 | 0.569 | 0.404 | 0.151 | 0.483 | 0.85 |
| CC(=O)Nc1cccc(-n2c(=O)n(C3CC3)c(=O)c3c(Nc4ccc(I)cc4F)n(C)c(=O)c(C)c32)c1 [Trametinib] + Cc1nc(-c2cn3c(n2)-c2ccc(-c4cnn(C(C)(C)C(N)=O)c4)cc2OCC3)n(C(C)C)n1 [Taselisib] (first compound max 1 µM, 7x7, partner max 10 µM) | 0.104 | 0.0676 | 0.0519 | 0.686 | 1 | 0.434 | 0.501 | 0.981 | 0.983 | 0.845 | 0.946 | 0.882 | 0.977 | 0.544 | 0.982 | 0.459 | 0.837 | 0.939 | 0.5 | 0.94 |

Source: the supplement of paper PMC11061612
